From patent US7989454B2, “Leukotriene B4 inhibitors” (Hoffmann-La Roche Inc., priority 2002, dated 2011)

System: BLT1 and BLT2 receptors
Experiment: Ca2+ flux assay for LTB4 antagonist assay (HL-60 FLIPR)
Type: cell-based, Human
Conditions: retinoic acid induced HL-60 cells endogenously expressing BLT1 and BLT2; inhibition of LTB4-induced Ca2+ flux; 30 min compound preincubation; read-out: LTB4 antagonism (HL-60 FLIPR)
Experimental: Ca^2+ Flux Assay for LTB4 Antagonist Assay
Human leukemia HL-60 cells endogenously expressing BLT1 and BLT2 receptors were cultured in RPMI-1640 medium supplemented with 20% fetal bovine serum, 2 mM glutamine, 100 U/mL penicillin and 100 ug/mL streptomycin.
Seventy two hours prior to experiment cells are counted using ViaCount reagent, centrifuged and resuspended at 2.0×10^5 cells/ml density with the complete growth media containing 1 μM retinoic acid (Sigma).
On a day of the experiment loading buffer (Calcium-3 Assay Kit, Molecular Devices) was prepared by dissolving the contents of one vial (Express Kit) into 500 ml Hank's Balanced Salt Solution containing 20 mM HEPES and 5 mM probenecid. Equal volume of the loading buffer was mixed with the replacement buffer (Hank's Balanced Salt Solution containing 20 mM HEPES, 0.05% BSA and 5 mM probenecid). Retinoic acid induced HL-60 cells were counted using ViaCount reagent, centrifuged and resuspended at 2.0×10^6 cells/mL density with the loading buffer/replacement buffer, dispensed into 384 well black/clear microplates (Falcon)(25 μL/well) and placed in a 37° C./5% CO2 incubator for 1 hour.
During the incubation, test compounds were prepared at 6× the desired concentration in HBSS/20 mM HEPES/0.05% BSA as well as LTB4 (Biomol) was prepared at 2.2× concentration in HBSS/20 mM HEPES/0.5% BSA buffer.
After the incubation, both the cell and compound plates were brought to the FLIPR and 5 μL of the diluted compounds were transferred to the cell plates by the FLIPR. Plates were then incubated for 30 min at room temperature. After the ½ hour incubation, plates were returned to the FLIPR and 25 μL of 2.2×LTB4 was added to the cell plates. During the assay, fluorescence readings were taken simultaneously from all 384 wells of the cell plate every 1.5 seconds. Five readings were taken to establish a stable baseline, then 25 μL (LTB4) of sample was rapidly and simultaneously added to each well of the cell plate. The fluorescence was continuously monitored before, during and after sample addition for a total elapsed time of 100 seconds. Responses (increase in peak fluorescence) in each well following agonist addition was determined. The initial fluorescence reading from each well, prior to ligand stimulation, was used a zero baseline value for the data from that well. The responses are expressed as % inhibition of the neutral control (neural control: wells that received buffer plus DMSO but no test compound).

IC50 [nM]	Compound
15.6	CN(C)C(=O)c1cc(C#CCCCCCc2cccc(OCCCC(=O)O)c2CCC(=O)O)cc(-c2ccc(O)cc2)c1 [Example 122, 4-{2-(2-Carboxy-ethyl)-3-[7-(5-dimethylcarbamoyl-4′-hydroxy-biphenyl-3-yl)-hept-6-ynyl]-phenoxy}-butyric acid]
2.41	CNC(=O)c1cc(OCCCCCCc2cccc(OCCCC(=O)O)c2CCC(=O)O)cc(-c2ccc3c(c2)OCCO3)c1 [Example 77, 4-(2-(2-Carboxy-ethyl)-3-{6-[3-(2,3-dihydro-benzo[1,4]dioxin-6-yl)-5-methylcarbamoyl-phenoxy]-hexyl}-phenoxy)-butyric acid]
0.08	O=C(O)CCCOc1cccc(CCCCCCOc2cc(C(=O)NC3CC3)cc(-c3ccc4c(c3)OCO4)c2)c1CCC(=O)O [Example 51, 4-[3-[6-(3-Benzo[1,3]dioxol-5-yl-5-cyclopropylcarbamoyl-phenoxy)-hexyl]-2-(2-carboxy-ethyl)-phenoxy]-butyric acid]
0.21	O=C(O)CCCOc1cccc(CCCCCCOc2cc(C(=O)NC3CCC3)cc(-c3ccc4c(c3)OCO4)c2)c1CCC(=O)O [Example 61, 4-[3-[6-(3-Benzo[1,3]dioxol-5-yl-5-cyclobutylcarbamoyl-phenoxy)-hexyl]-2-(2-carboxy-ethyl)-phenoxy]-butyric acid]
0.14	CN1CCCN(C(=O)c2cc(OCCCCCCc3cccc(OCCCC(=O)O)c3CCC(=O)O)cc(-c3ccc4c(c3)OCO4)c2)CC1 [Example 36, 4-[3-{6-[3-Benzo[1,3]dioxol-5-yl-5-(4-methyl-[1,4]diazepane-1-carbonyl)-phenoxy]-hexyl}-2-(2-carboxy-ethyl)-phenoxy]-butyric acid]
19.5	CN1CCN(C(=O)c2cc(CCCCCCCc3cccc(OCCCC(=O)O)c3CCC(=O)O)cc(-c3ccccc3)c2)CC1 [Example 118, 4-(2-(2-Carboxy-ethyl)-3-{7-[5-(4-methyl-piperazine-1-carbonyl)-biphenyl-3-yl]-heptyl}-phenoxy)-butyric acid]
0.79	Cc1ccc(-c2cc(OCCCCCCc3cccc(OCCCC(=O)O)c3CCC(=O)O)cc(C(=O)N(C)C)c2)cc1F [Example 105, 4-{2-(2-Carboxy-ethyl)-3-[6-(5-dimethylcarbamoyl-3′-fluoro-4′-methyl-biphenyl-3-yloxy)-hexyl]-phenoxy}-butyric acid]
7.46	CC1CCCN(C(=O)c2cc(OCCCCCCc3cccc(OCCCC(=O)O)c3CCC(=O)O)cc(-c3ccc4c(c3)OCO4)c2)C1 (stereo not shown) [Example 46, 4-[3-{6-[3-Benzo[1,3]dioxol-5-yl-5-(3-methyl-piperidine-1-carbonyl)-phenoxy]-hexyl}-2-(2-carboxy-ethyl)-phenoxy]-butyric acid]
0.22	CN1CCN(C(=O)c2cc(OCCCCCCc3cccc(OCCCC(=O)O)c3CCC(=O)O)cc(-c3ccccc3)c2)CC1 [Example 28, 4-(2-(2-Carboxy-ethyl)-3-{6-[5-(4-methyl-piperazine-1-carbonyl)-biphenyl-3-yloxy]-hexyl}-phenoxy)-butyric acid]
47.3	Cc1cscc1-c1cc(OCCCCCCc2cccc(OCCCC(=O)O)c2CCC(=O)O)cc(C(=O)N2CCN(C)CC2)c1 [Example 24, 4-(2-(2-Carboxy-ethyl)-3-{6-[3-(4-methyl-piperazine-1-carbonyl)-5-(4-methyl-thiophen-3-yl)-phenoxy]-hexyl}-phenoxy)-butyric acid]
0.08	O=C(O)CCCOc1cccc(CCCCCCOc2cc(C(=O)N3CCNCC3)cc(-c3ccc4c(c3)OCO4)c2)c1CCC(=O)O [Example 44, 4-[3-{6-[3-Benzo[1,3]dioxol-5-yl-5-(piperazine-1-carbonyl)-phenoxy]-hexyl}-2-(2-carboxy-ethyl)-phenoxy]-butyric acid]
0.21	O=C(O)CCCOc1cccc(CCCCCCOc2cc(C(=O)N3CCCCC3)cc(-c3ccc4c(c3)OCO4)c2)c1CCC(=O)O [Example 42, 4-[3-{6-[3-Benzo[1,3]dioxol-5-yl-5-(piperidine-1-carbonyl)-phenoxy]-hexyl}-2-(2-carboxy-ethyl)-phenoxy]-butyric acid]
0.28	CN(C)C(=O)c1cc(OCCCCCCc2cccc(OCCCC(=O)O)c2CCC(=O)O)cc(-c2ccsc2)c1 [Example 85, 4-{2-(2-Carboxy-ethyl)-3-[6-(3-dimethylcarbamoyl-5-thiophen-3-yl-phenoxy)-hexyl]-phenoxy}-butyric acid]
299	O=C(O)CCCOc1cccc(CCCCCCOc2cc(C(=O)NCc3ccccc3)cc(-c3c(F)cccc3F)c2)c1CCC(=O)O [Example 5, 4-[3-[6-(5-Benzylcarbamoyl-2′,6′-difluoro-biphenyl-3-yloxy)-hexyl]-2-(2-carboxy-ethyl)-phenoxy]-butyric acid]
0.1	CN(C)C(=O)c1cc(OCCCCCCc2cccc(OCCCC(=O)O)c2CCC(=O)O)cc(-c2ccc3c(c2)OCO3)c1 [Example 53, 4-[3-[6-(3-Benzo[1,3]dioxol-5-yl-5-dimethylcarbamoyl-phenoxy)-hexyl]-2-(2-carboxy-ethyl)-phenoxy]-butyric acid]
0.2	NC(=O)c1cc(OCCCCCCc2cccc(OCCCC(=O)O)c2CCC(=O)O)cc(-c2ccc3c(c2)OCO3)c1 [Example 55, 4-[3-[6-(3-Benzo[1,3]dioxol-5-yl-5-carbamoyl-phenoxy)-hexyl]-2-(2-carboxy-ethyl)-phenoxy]-butyric acid]
52.2	O=C(O)CCCOc1cccc(CCCCCCOc2cc(C(=O)NC3CCC3)cc(-c3cccc(F)c3)c2)c1CCC(=O)O [Example 67, 4-{2-(2-Carboxy-ethyl)-3-[6-(5-cyclobutylcarbamoyl-3′-fluoro-biphenyl-3-yloxy)-hexyl]-phenoxy}-butyric acid]
0.25	CCN(C)C(=O)c1cc(OCCCCCCc2cccc(OCCCC(=O)O)c2CCC(=O)O)cc(-c2ccc3c(c2)OCO3)c1 [Example 73, 4-[3-{6-[3-Benzo[1,3]dioxol-5-yl-5-(ethyl-methyl-carbamoyl)-phenoxy]-hexyl}-2-(2-carboxy-ethyl)-phenoxy]-butyric acid]
0.24	Cc1ccc(-c2cc(OCCCCCCc3cccc(OCCCC(=O)O)c3CCC(=O)O)cc(C(=O)N(C)C)c2)cc1 [Example 112, 4-{2-(2-Carboxy-ethyl)-3-[6-(5-dimethylcarbamoyl-4′-methyl-biphenyl-3-yloxy)-hexyl]-phenoxy}-butyric acid]
